In the assay the target is T1, RORγ (Homo sapiens, UniProt P51449).
T1 construct: Gal4 (galactose-responsive transcription factor); expressed in transfected cells; host or cells: HEK293
T1 sequence (P51449 269-508 limits assumed): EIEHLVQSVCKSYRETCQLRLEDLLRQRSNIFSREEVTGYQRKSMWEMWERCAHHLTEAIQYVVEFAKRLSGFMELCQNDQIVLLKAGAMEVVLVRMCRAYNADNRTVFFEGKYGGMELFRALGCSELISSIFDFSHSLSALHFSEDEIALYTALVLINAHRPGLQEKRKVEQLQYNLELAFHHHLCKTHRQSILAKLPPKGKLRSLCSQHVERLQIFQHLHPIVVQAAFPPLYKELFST
The assay can be described thus: RORγ Reporter Assay (Gal4). Type of assay: cell-based. The note with it: HEK293 co-transfected with RORγ LBD-Gal4 and luciferase reporter, 24 h incubation, absolute IC50; read-out: IC50. As to the method: RORγ Reporter Assay (Gal4)
The HEK293 cell line is co-transfected transiently with two plasmids, one with the RORγ ligand-binding domain fused to galactose-responsive transcription factor (Gal4), and the other with the luciferase reporter gene and Gal binding sites (UAS). This construction allows to determine the RORγ activity in a cellular system through the measurement of luminescence.
A suspension of RORγ reporter cells was dispensed into plates and cultured 2 h at 37° C. and 5% CO2. Media formulation consisted in DMEM/F-12 medium (Gibco) supplemented with 10% heat inactivated FBS (Sigma-Aldrich), non-essential aminoacids (Sigma-Aldrich), 2 mM Glutamax (Gibco) and 100 U/mF penicillin (Sigma-Aldrich). Dose-response curves with compounds were prepared in 100% DMSO and further diluted […] in culture medium. Compound solutions were added to the plate containing cells (final DMSO concentration of 0.1%) and incubated for 24 h at 37° C. and 5% CO2. Luciferase detection reagent was added to each well, and relative light units […] were quantified from each assay well using a plate reading luminometer.
Values of average RFU±S.D. were computed for all treatment sets, followed by the calculations of percent-reduction of RORγ activity in response to respective test compound. The following formula was used: activity=100*[1−[x test compound/average vehicle]where the theoretical minimum reduction (0% reduction).
Background: Reporter assays use an easily measured gene product as a stand-in for the process of interest.

Consider `C[C@@H]1COC[C@H](c2cccc(C(F)(F)F)c2)N1c1ncnc(NC[C@@H]2CCN(CC(N)=O)C[C@H]2O)c1F` (single isomer, unassigned) [Example H6-21-4], for which the IC50 is 120 nM.

On to `NC(=O)CN1CC[C@H](CNc2ncnc(N3CC(F)(F)C[C@@H]3c3ccc(C(F)(F)F)cc3)c2F)[C@@H](F)C1` (single isomer, unassigned) [Example H6-16-1, 2-((3R*,4R*)-4-(((6-((R)-4,4-difluoro-2-(4-(trifluoromethyl)phenyl)pyrrolidin-1-yl)-5-fluoropyrimidin-4-yl)amino)methyl)-3-fluoropiperidin-1-yl)acetamide], for which the IC50 was 14 nM.

Consider `NC(=O)CN1CC[C@H](CNc2ncnc(N3CCOC[C@@H]3c3ccc(C(F)(F)F)cc3)c2F)[C@@H](F)C1` (single isomer, unassigned) [Example H6-10-2, 2-((3R*,4R*)-3-fluoro-4-(((5-fluoro-6-((S)-3-(4-(trifluoromethyl)phenyl)morpholino)pyrimidin-4-yl)amino)methyl)piperidin-1-yl)acetamide], for which the IC50 was 13 nM.

Regarding `NC(=O)CN1CC[C@H](CNc2ncnc(N3CC(F)(F)C[C@@H]3c3ccc(C(F)(F)F)cn3)c2F)[C@@H](F)C1` (single isomer, unassigned) [Example H6-18-1, 2-((3R*,4R*)-4-(((6-((R)-4,4-difluoro-2-(5-(trifluoromethyl)pyridin-2-yl)pyrrolidin-1-yl)-5-fluoropyrimidin-4-yl)amino)methyl)-3-fluoropiperidin-1-yl)acetamide], the IC50 stood at 140 nM.

On to `NC(=O)CN1CC[C@H](CNc2ncnc(N3CC(F)(F)C[C@@H]3c3ccc(C(F)(F)F)cn3)c2F)[C@@H](F)C1` (single isomer, unassigned) [Example H6-18-2, 2-((3R*,4R*)-4-(((6-((R)-4,4-difluoro-2-(5-(trifluoromethyl)pyridin-2-yl)pyrrolidin-1-yl)-5-fluoropyrimidin-4-yl)amino)methyl)-3-fluoropiperidin-1-yl)acetamide], for which the 50% inhibitory concentration (IC50) was 60 nM.

For `NC(=O)CN1CC[C@H](CNc2ncnc(N3CCOC[C@@H]3c3ccc(C(F)(F)F)cc3)c2F)[C@@H](F)C1` (single isomer, unassigned) [Example H6-10-1, 2-((3R*,4R*)-3-fluoro-4-(((5-fluoro-6-((S)-3-(4-(trifluoromethyl)phenyl)morpholino)pyrimidin-4-yl)amino)methyl)piperidin-1-yl)acetamide], the IC50 was 39 nM.

On to `NC(=O)CN1CC[C@@H](CNc2ncnc(N3CCOC[C@@H]3c3ccc(C(F)(F)F)cc3)c2F)[C@H](O)C1` (single isomer, unassigned) [Example H6-7-2, 2-((3R*,4R*)-4-(((5-fluoro-6-((S)-3-(4-(trifluoromethyl)phenyl)morpholino)pyrimidin-4-yl)amino)methyl)-3-hydroxypiperidin-1-yl)acetamide], for which the half-maximal inhibitory concentration (IC50) came to 35 nM.

Take `NC(=O)CN1CCC(CNc2ncnc(N3CCOC[C@@H]3c3ccc(C(F)(F)F)cn3)c2F)CC1` [Example H6-2, (S)-2-(4-(((5-fluoro-6-(3-(5-(trifluoromethyl)pyridin-2-yl)morpholino)pyrimidin-4-yl)amino)methyl)piperidin-1-yl)acetamide]: the IC50 was 330 nM.

With `C[C@@H]1COC[C@H](c2cccc(C(F)(F)F)c2)N1c1ncnc(NC[C@@H]2CCN(CC(N)=O)C[C@H]2O)c1F` (single isomer, unassigned) [Example H6-21-3], the IC50 is 86 nM.

`NC(=O)CN1CCC(F)(CNc2ncnc(N3CCOC[C@@H]3c3ccc(C(F)(F)F)cc3)c2F)CC1` [Example H6-4, (S)-2-(4-fluoro-4-(((5-fluoro-6-(3-(4-(trifluoromethyl)phenyl)morpholino)pyrimidin-4-yl)amino)methyl)piperidin-1-yl)acetamide]: the IC50 came out at 56 nM.

Turning to `NC(=O)CN1CCC(CNc2ncnc(N3CCOC[C@@H]3c3ccc(OC(F)(F)F)cc3)c2F)CC1` [Example H6-23, (S)-2-(4-(((5-fluoro-6-(3-(4-(trifluoromethoxy)phenyl)morpholino)pyrimidin-4-yl)amino)methyl)piperidin-1-yl)acetamide], the 50% inhibitory concentration (IC50) is 190 nM.

In general, IC50 refers to the concentration at which inhibition is half-maximal.

The record behind these values is US11447479B2, “Compounds active towards nuclear receptors” (NUEVOLUTION A/S, priority 2019, dated 2022).
